ChEMBL document CHEMBL1135140, “Pyridazines. Part 28: 5-alkylidene-6-phenyl-3(2H)-pyridazinones, a new family of platelet aggregation inhibitors” (Bioorg Med Chem Lett, 2002)

Assay: Tested for anti-platelet activity by turbidimetric method using thrombin as agonist in washed platelet
Format: functional

Structure (SMILES)	IC50
COC(=O)C(=Cc1cc(=O)[nH]nc1-c1ccccc1)C(=O)OC	45 µM
Clc1ccccc1CN1CCc2sccc2C1 [TICLOPIDINE]	1550 µM
CCOC(=O)C(=Cc1cc(=O)[nH]nc1-c1ccccc1)C(=O)OCC	20 µM
O=C1C(CC[S+]([O-])c2ccccc2)C(=O)N(c2ccccc2)N1c1ccccc1 (stereo not given) [SULFINPYRAZONE]	696 µM
COC(=O)/C(=C/c1cc(O)nnc1-c1ccccc1)C(C)=O	25 µM
